Source: patent US20250154109A1, “SODIUM CHANNEL BLOCKING COMPOUNDS, DERIVATIVES THEREOF, AND METHODS OF THEIR USE” (LATIGO BIOTHERAPEUTICS, INC, priority 2022, published 2025)

Assays:
[1] = test system: human plasma protein; assay: Human plasma protein binding by equilibrium dialysis; assay type: in vitro ADME; conditions: for Human Plasma, Unbound %: equilibrium dialysis; for Fold increase vs Comparatror (human plasma unbound): ratio of unbound % sulfoximine / comparator sulfonamide
Description: (§1) Table 3 presents the human and rat plasma protein binding data (% unbound) for the compounds of Table 2.
(§2) Comparator compounds A, B, C have been previously reported as inhibitors of Na, 1.8 in WO2020/092667. Comparator D, not previously reported, is offered as an additional sulfonamido example.

[2] = test system: rat plasma protein; assay: Rat plasma protein binding by equilibrium dialysis; assay type: in vitro ADME; conditions: for Rat Plasma, Unbound %: equilibrium dialysis; for Fold increase vs Comparator (rat plasma unbound): ratio of unbound % sulfoximine / comparator sulfonamide
Description: as §1, §2

[3] = molecular target: T1, human Nav1.8 (Homo sapiens, UniProt Q9Y5Y9); assay: SyncroPatch384PE assay (automated patch clamp); assay type: cell-based; conditions: human Nav1.8/b3 CHO cells
T1 sequence (Q9Y5Y9 whole entry): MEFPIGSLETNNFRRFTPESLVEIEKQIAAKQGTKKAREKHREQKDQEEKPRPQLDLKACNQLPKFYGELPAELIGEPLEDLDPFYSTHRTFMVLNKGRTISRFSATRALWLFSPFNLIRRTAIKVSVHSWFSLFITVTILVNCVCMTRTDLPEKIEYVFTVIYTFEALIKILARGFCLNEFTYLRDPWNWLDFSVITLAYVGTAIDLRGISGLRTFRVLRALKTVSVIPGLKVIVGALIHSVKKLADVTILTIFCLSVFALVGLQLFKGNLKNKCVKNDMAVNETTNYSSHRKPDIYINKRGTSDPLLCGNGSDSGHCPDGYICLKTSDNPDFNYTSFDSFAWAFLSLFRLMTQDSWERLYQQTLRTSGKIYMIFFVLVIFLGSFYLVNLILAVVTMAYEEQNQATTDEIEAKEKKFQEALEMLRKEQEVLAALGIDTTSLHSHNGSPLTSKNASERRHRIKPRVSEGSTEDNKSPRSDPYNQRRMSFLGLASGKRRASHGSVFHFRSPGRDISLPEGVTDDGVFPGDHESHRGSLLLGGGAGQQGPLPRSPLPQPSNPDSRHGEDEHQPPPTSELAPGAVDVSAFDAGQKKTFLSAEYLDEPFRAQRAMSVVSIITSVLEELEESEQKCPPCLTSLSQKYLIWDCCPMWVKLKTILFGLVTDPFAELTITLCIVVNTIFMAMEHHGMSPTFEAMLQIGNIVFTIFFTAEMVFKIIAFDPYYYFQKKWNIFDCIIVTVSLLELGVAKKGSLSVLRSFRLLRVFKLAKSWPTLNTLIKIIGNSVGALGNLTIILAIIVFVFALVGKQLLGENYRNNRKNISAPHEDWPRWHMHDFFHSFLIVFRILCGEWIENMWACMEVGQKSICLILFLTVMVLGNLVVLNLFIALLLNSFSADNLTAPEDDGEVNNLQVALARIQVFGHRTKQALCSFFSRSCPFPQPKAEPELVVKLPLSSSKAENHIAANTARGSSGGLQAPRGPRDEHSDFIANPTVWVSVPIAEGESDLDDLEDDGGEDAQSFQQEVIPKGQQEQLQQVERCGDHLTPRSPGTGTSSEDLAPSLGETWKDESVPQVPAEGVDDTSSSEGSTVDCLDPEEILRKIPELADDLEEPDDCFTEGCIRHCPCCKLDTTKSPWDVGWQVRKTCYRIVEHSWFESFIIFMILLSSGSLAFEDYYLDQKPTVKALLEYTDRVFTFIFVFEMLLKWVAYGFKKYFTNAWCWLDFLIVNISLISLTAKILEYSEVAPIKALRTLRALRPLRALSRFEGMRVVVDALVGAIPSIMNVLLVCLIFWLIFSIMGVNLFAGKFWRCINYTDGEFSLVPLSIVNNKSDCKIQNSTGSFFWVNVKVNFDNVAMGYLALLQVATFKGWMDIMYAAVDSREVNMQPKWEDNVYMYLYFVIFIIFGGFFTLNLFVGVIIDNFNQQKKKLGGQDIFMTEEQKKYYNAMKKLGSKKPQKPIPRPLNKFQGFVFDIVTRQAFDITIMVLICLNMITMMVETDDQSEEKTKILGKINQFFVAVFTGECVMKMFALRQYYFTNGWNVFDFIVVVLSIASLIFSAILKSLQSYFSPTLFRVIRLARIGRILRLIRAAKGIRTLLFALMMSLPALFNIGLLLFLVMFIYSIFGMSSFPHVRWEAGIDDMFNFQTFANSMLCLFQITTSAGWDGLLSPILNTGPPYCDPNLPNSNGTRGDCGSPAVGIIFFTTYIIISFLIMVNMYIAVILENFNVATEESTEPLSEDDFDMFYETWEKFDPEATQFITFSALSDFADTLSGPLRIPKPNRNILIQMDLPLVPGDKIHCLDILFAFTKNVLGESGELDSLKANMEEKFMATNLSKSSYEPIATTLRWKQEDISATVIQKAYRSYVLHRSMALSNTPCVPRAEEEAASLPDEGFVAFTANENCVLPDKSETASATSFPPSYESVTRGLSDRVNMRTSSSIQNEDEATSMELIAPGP

[4] = molecular target: T1, human Nav1.8; assay: Sophion Qpatch II assay (automated patch clamp); assay type: cell-based; conditions: resting state block (TP1 measurement), human Nav1.8 HEK293 cells, read-out: P1 IC50
Protocol: Compounds were tested on recombinant human Nav1.8/01 stably transfected HEK293 (Eurofins, CYL3025, St. Charles, MO) cells using the Qpatch II system (Sophion Bioscience A/S, Ballerup—Denmark), an automated patch clamp device. Cells were cultured at 37° C./5% CO2 in DMEM/F-12 supplemented with 10% fetal bovine serum, lx Non-Essential Amino Acids, and selection antibiotics (0.625 μg/mL Puromycin, 400 μg/mL Geneticin, and 100 μg/mL Hygromycin). One or two days prior to recording, cells were moved to a lower temperature 30° C./5% CO2 incubator to increase surface expression of the channels. On the day of the recordings, cells in culture dishes were washed twice with Ca^2+—Mg^2+ free DPBS and treated with Detachin (Genlantis, San Diego) for 3 minutes and then resuspended in Serum Free Medium (EX-CELL® ACF CHO Medium for Cell Culture (Sigma-Aldrich) supplemented with 0.04 mg/mL soybean trypsin Inhibitor and 25 mM HEPES (all components supplied by Sigma-Aldrich, St. Louis, MO) and allowed to recover for a minimum of 20 minutes in the onboard Qstirrer. All experiments were performed at ambient temperature. Intracellular solution contained (mM): CsCl, 50; CsF, 90; MgCl2, 2; EGTA, 5; HEPES, 10; pH adjusted to 7.2 with CsOH. Extracellular solution contained (mM): NaCl, 137; KCl, 4; CaCl2), 3.8; MgCl2, 1; HEPES, 10; Glucose, 10; pH adjusted to 7.4 with NaOH. 500 nM tetrodotoxin (TTX) was added to the extracellular solution to block endogenous TTX-sensitive sodium currents.
Compounds were tested in an interleaved manner across two cohorts of wells to develop an aggregate 8-point concentration response curve. Final concentrations include 0.5% DMSO and 0.03% pluronic Acid. The concentration range spanned a range from 0.01-300 nM. Compounds were diluted 1:10 with extracellular solution within their respective cohort. (R)-2-(4-fluoro-2-methylphenoxy)-N-(3-(S-methylsulfonimidoyl)phenyl)-5-(trifluoromethyl)nicotinamide served as a positive control while DMSO (0.5% by volume) served as a vehicle control to ascertain assay performance.
Whole cell patch clamp recordings were conducted according to Sophion standard procedure for Qpatch II®. Cells were held at a holding potential of −120 mV. A depolarizing step to 10 mV for 30 ms was applied (TP1 measurement), followed by a hyperpolarization step to −100 mV for 20 ms. Due to instability observed at long depolarized potentials, there were no second TP2 measurements attempted. Inter-sweep interval was 15 sec. Following establishment of the whole-cell configuration in extracellular solution, cells were washed twice in extracellular solution containing 0.5% DMSO and 0.03% pluronic acid to stabilize the baseline current. Compounds were then applied by the Qpatch II system into each well in an ascending manner within cohort and the current was recorded for five minutes for each concentration. Percent of current remaining was determined by taking the average of the last 5 sweeps within each concentration and normalizing to the latest pre-compound saline period. The potency of the compounds was assessed on resting state block (TP1 measurement) only to obtain IC50 values. Wells whose initial sodium current magnitude were below 2 nA or whole cell resistance fell below 100 MQ were excluded from analysis.
Examples 220 to 224, Examples 237 to 257 and Example 259 are assayed using Sophion Qpatch II assay described above.

[5] = resting state block (P1 measurement), read-out: P1 IC50

Row | SMILES | Rat Plasma, Unbound % [2] [%] | IC50 [4] [µM] | also measured
1 | Cc1nc(N2CCCC(F)(F)CC2)c(C(=O)Nc2cccc(S(C)(=N)=O)c2)cc1Cl (stereo in doubt) [Example 17, (S)-5-Chloro-2-(4,4-difluoroazepan-1-yl)-6-methyl-N-(3-(S-methylsulfonimidoyl)phenyl)nicotinamide] | 3.0 | – | Human Plasma, Unbound % [1]: 1.7%; Fold increase vs Comparatror (human plasma unbound) [1]: 3.2×; Fold increase vs Comparator (rat plasma unbound) [2]: 1.9×; IC50 [3, 5]: ≤ 0.005 µM
2 | Cc1nc(N2CCCC(F)(F)CC2)c(C(=O)Nc2cccc(S(N)(=O)=O)c2)cc1C(F)(F)F [Compound D, reference compound] | 0.31 | – | Human Plasma, Unbound % [1]: 0.31%
3 | Cc1nc(N2CCCC(F)(F)CC2)c(C(=O)Nc2ccnc(S(C)(=N)=O)c2)cc1C(F)(F)F (stereo not drawn) [Example 101, 2-(4,4-difluoroazepan-1-yl)-6-methyl-N-(2-(S-methylsulfonimidoyl)pyridin-4-yl)-5-(trifluoromethyl)nicotinamide] | 3.55 | – | Human Plasma, Unbound % [1]: 1.8%; Fold increase vs Comparatror (human plasma unbound) [1]: 7.5×; Fold increase vs Comparator (rat plasma unbound) [2]: 6.8×; IC50 ([3]; inactivated state block (P2 measurement), read-out: P2 IC50): ≤ 0.005 µM; IC50 [3, 5]: ≤ 0.005 µM
4 | NS(=O)(=O)c1cccc(NC(=O)c2cc(C(F)(F)F)nnc2N2CCCC(F)(F)CC2)c1 [Compound B, reference compound] | 15.8 | – | Human Plasma, Unbound % [1]: 17.4%
5 | Cc1c(C(=O)Nc2cccc([S@@](C)(=N)=O)c2)c(N2CCCC(F)(F)CC2)nc(C2CC2)c1C(F)(F)F [Example 223, (S)-6-cyclopropyl-2-(4,4-difluoroazepan-1-yl)-4-methyl-N-(3-(S-methylsulfonimidoyl)phenyl)-5-(trifluoromethyl)nicotinamide] | – | ≤ 0.005 | –
6 | Cc1c(C(=O)Nc2ccnc([S@@](C)(=N)=O)c2)c(N2CCCC(F)(F)CC2)nc(C2CC2)c1C(F)(F)F [Example 221, (S)-6-cyclopropyl-2-(4,4-difluoroazepan-1-yl)-4-methyl-N-(2-(S-methylsulfonimidoyl)pyridin-4-yl)-5-(trifluoromethyl)nicotinamide] | – | 0.005 to 0.05 | –
7 | C[S@@](=N)(=O)c1cc(NC(=O)c2cc(Cl)c(C(F)(F)F)cc2N2CCC(C(F)(F)F)CC2)ccc1F [Example 245, (R)-5-chloro-N-(4-fluoro-3-(S-methylsulfonimidoyl)phenyl)-4-(trifluoromethyl)-2-(4-(trifluoromethyl)piperidin-1-yl)benzamide] | – | 0.005 to 0.05 | –
8 | Cc1nc(N2CCCC(F)(F)CC2)c(C(=O)Nc2ccnc(S(N)(=O)=O)c2)cc1C(F)(F)F [Compound A, reference compound] | 0.52 | – | Human Plasma, Unbound % [1]: 0.24%
9 | CS(=N)(=O)c1cccc(NC(=O)c2cc(C(F)(F)F)nnc2N2CCCC(F)(F)CC2)c1 (stereo not drawn) [Compound E] | 37.8 | – | Fold increase vs Comparator (rat plasma unbound) [2]: 2.4×
10 | Cc1c(C(=O)Nc2ccnc([S@](C)(=N)=O)c2)c(N2CCCC(F)(F)CC2)cc(C2CC2)c1C(F)(F)F [Example 250, (R)-4-cyclopropyl-6-(4,4-difluoroazepan-1-yl)-2-methyl-N-(2-(S-methylsulfonimidoyl)pyridin-4-yl)-3-(trifluoromethyl)benzamide] | – | ≤ 0.005 | –
11 | Cc1c(C(F)(F)F)cnc(N2CCO[C@@H](C(F)(F)F)C2)c1C(=O)Nc1cccc([S@](C)(=N)=O)c1 [Example 238, 4-methyl-N-(3-((R)—S-methylsulfonimidoyl)phenyl)-5-(trifluoromethyl)-2-((R)-2-(trifluoromethyl)morpholino)nicotinamide] | – | > 0.2 | –
12 | Cc1c(C(=O)Nc2ccnc([S@](C)(=N)=O)c2)c(N2CCCC(F)(F)CC2)nc(C2CC2)c1C(F)(F)F [Example 220, (R)-6-cyclopropyl-2-(4,4-difluoroazepan-1-yl)-4-methyl-N-(2-(S-methylsulfonimidoyl)pyridin-4-yl)-5-(trifluoromethyl)nicotinamide] | – | 0.005 to 0.05 | –
13 | C[S@](=N)(=O)c1cc(NC(=O)c2cc(Cl)c(C(F)(F)F)cc2N2CCC(C(F)(F)F)CC2)ccn1 [Example 244, (S)-5-chloro-N-(2-(S-methylsulfonimidoyl)pyridin-4-yl)-4-(trifluoromethyl)-2-(4-(trifluoromethyl)piperidin-1-yl)benzamide] | – | 0.05 to 0.1 | –
14 | C[S@](=N)(=O)c1cccc(NC(=O)c2cc(Cl)c(C(F)(F)F)cc2N2CCC(F)(F)CC2)c1 [Example 255, (S)-5-chloro-2-(4,4-difluoropiperidin-1-yl)-N-(3-(S-methylsulfonimidoyl)phenyl)-4-(trifluoromethyl)benzamide] | – | 0.005 to 0.05 | –
15 | Cc1c(C(F)(F)F)cnc(N2CCO[C@H](C(F)(F)F)C2)c1C(=O)Nc1cccc([S@](C)(=N)=O)c1 [Example 240, 4-methyl-N-(3-((R)—S-methylsulfonimidoyl)phenyl)-5-(trifluoromethyl)-2-((S)-2-(trifluoromethyl)morpholino)nicotinamide] | – | 0.005 to 0.05 | –
16 | Cc1c(C(F)(F)F)cnc(N2CCO[C@@H](C(F)(F)F)C2)c1C(=O)Nc1ccnc([S@](C)(=N)=O)c1 [Example 239, 4-methyl-N-(2-((R)—S-methylsulfonimidoyl)pyridin-4-yl)-5-(trifluoromethyl)-2-((R)-2-(trifluoromethyl)morpholino)nicotinamide] | – | > 0.2 | –
17 | C[S@](=N)(=O)c1cccc(NC(=O)c2cc(Cl)c(C(F)(F)F)cc2N2CCC(C(F)(F)F)CC2)c1 [Example 251, (S)-5-chloro-N-(3-(S-methylsulfonimidoyl)phenyl)-4-(trifluoromethyl)-2-(4-(trifluoromethyl)piperidin-1-yl)benzamide] | – | 0.05 to 0.1 | –
18 | C[S@](=N)(=O)c1cc(NC(=O)c2cc(Cl)c(C(F)(F)F)cc2N2CCC(C(F)(F)F)CC2)ccc1F [Example 246, (S)-5-chloro-N-(4-fluoro-3-(S-methylsulfonimidoyl)phenyl)-4-(trifluoromethyl)-2-(4-(trifluoromethyl)piperidin-1-yl)benzamide] | – | 0.05 to 0.1 | –
19 | NC(=O)[C@H]1C[C@H](NC(=O)c2cc(Cl)c(C(F)(F)F)cc2N2CCCC(F)(F)CC2)C1 [Example 252, N-((trans)-3-carbamoylcyclobutyl)-5-chloro-2-(4,4-difluoroazepan-1-yl)-4-(trifluoromethyl)benzamide] | – | 0.05 to 0.1 | –
20 | Cc1nc(N2CCCC(F)(F)CC2)c(C(=O)Nc2ccnc(S(N)(=O)=O)c2)cc1Cl [Compound C, reference compound] | 1.62 | – | Human Plasma, Unbound % [1]: 0.53%
21 | Cc1c(C(=O)Nc2cccc([S@](C)(=N)=O)c2)c(N2CCCC(F)(F)CC2)nc(C2CC2)c1C(F)(F)F [Example 224, (R)-6-cyclopropyl-2-(4,4-difluoroazepan-1-yl)-4-methyl-N-(3-(S-methylsulfonimidoyl)phenyl)-5-(trifluoromethyl)nicotinamide] | – | 0.005 to 0.05 | –
22 | Cc1c(C(F)(F)F)cnc(N2CCC(C(F)(F)F)CC2)c1C(=O)Nc1cccc([S@](C)(=N)=O)c1 [Example 242, (R)-4-methyl-N-(3-(S-methylsulfonimidoyl)phenyl)-5-(trifluoromethyl)-2-(4-(trifluoromethyl)piperidin-1-yl)nicotinamide] | – | 0.005 to 0.05 | –
